Patent US20050163711A1, “Intra-dermal delivery of biologically active agents” (Becton, Dickinson and Company, Inc., priority 2003, published 2005)

Assays:
[1] = Yorkshire, swine, in vivo
Procedure: Yorkshire swine (Charles River Laboratories, Raleigh, N.C.), 20-25 kg, were anesthetized (telazol/xylazine/ketamine mix (35, 17.5, 17.5 mg/kg respectively, followed by continued isoflurane inhalation) and injected intradermally (90° angle) using a 34G, 1 mm needle/catheter and a standard syringe. IV injections were performed using a 27G, half-inch needle and delivered through a venous catheter. All recovered swine were intubated and hydrated throughout the procedure.
Dye Injections: Yorkshire swine were injected ID as described above, with 200 uls of 250 ug/ml indocyanine green (ICG) in sterile water (Fluka Chemical Corp., Milwaukee, Wis.). Injections sites included the right hind leg, and at the first and second teat of the left mammary chain. Additional injections of 200 μls and 75 μls were performed at 80 ug/ml indocyanine green in order to determine lymphatic flow rates. […]
Image Acquisition: Near infrared images were obtained using a tungsten lamp (Dolan-Jenner, Lawrence, Mass.) fitted with a 750 nm excitation filter (Omega Optical, Brattleboro, Vt.), a CCD camera (Kowa Co., Supercircuits CCTV camera model b/w Hi-Res ExVision) fitted with a 790 nm long pass emission filter (Omega Optical) and a Canon ZR-20 mini-DV camcorder. […] Speed of infusion through the lymphatic vessels determined from film footage.

[2] = Dye staining and tracing in vivo after intradermal injection; parameters: species or system Balb/c mice; details: mouse, ID, 34 gauge needle, 1% solution, one hour post injection
Procedure: MATERIALS AND METHODS. In Vivo cell staining and all the following experiments were conducted under an approved IACUC protocol. Balb/c mice (Charles River Laboratories, Raleigh, N.C.), 6-8 weeks old, were anesthetized (IsoFlurane, Abbott Laboratories, Chicago, Ill.) and injected intradermally with 1% Evans Blue dye solution using a standard syringe with 34 gauge needle. The mice were dissected one hour post injection and the location of the dye observed. The mouse, as the human, has several main groups of easily identified draining lymph nodes.

[3] = Dye staining and tracing in vivo: comparison of SC and ID delivery; parameters: species or system Yorkshire swine; details: swine; for location of dye on dissection: 10 minutes post injection
Procedure: MATERIALS AND METHODS. In vivo cell staining and all the following experiments were conducted under an approved IACUC protocol. […] Visual observation made during ID injection noted immediate transport of the dye from the site of injection moving toward the regional draining lymph node, the inguinal node. This transport was visible through the skin and was extremely rapid, traversing tissues at velocities of up to 10 cm per second. […] The swine was euthanized and dissected 10 minutes post injection and the location of the dye observed.

[4] = ID administration of 200 uL dye with 34G, 1 mm needle/catheter, transport to inguinal lymph node; format: in vivo, Yorkshire swine; details: swine, manual ID above the right hoof, 200 uls
Procedure: MATERIALS AND METHODS. The following experiments were conducted under an approved IACUC protocol. Yorkshire Swine (Charles River Laboratories, Raleigh, N.C.), approximately 20-25 kg, were anesthetized (Rompun 4 mg/kg, Xylazine 2 mg/kg, and Ketamine 2 mg/kg and maintained on 2% isoflurane) and injected intradermally with 1% Evans Blue (EB) dye solution at various volumes and needle penetration depths using a standard syringe and a 34 gauge needle. Injection volume and rate was controlled manually or with a Harvard Apparatus PhD 2000 programmable pump.
The skin at the injection site, including the injected material and surrounding tissue, was immediately excised after the injection. The tissue was flash frozen on dry ice/2-methylbutane and then stored at −80° C. until sectioning. The frozen tissue was cut longitudinally through the needle insertion point and immediately examined microscopically and photographed. Microscopic examinations were conducted using a Nikon SMZ-U dissecting scope with a Nikon FX-35PX 35 mm camera mount. Alternatively, after injection, the swine was euthanized and the tissue resected and photographed.
One anesthetized Yorkshire swine was manually injected intradermally above the right hoof with 200 uls of EB through a 34G, 1 mm needle/catheter.

dye travel speed calculated for one injection [1] [cm/s]	staining of superficial inguinal lymph nodes with the dye [2]	velocity of dye transport from injection site toward inguinal node ([3]; ID, 34-gauge needle 1 mm, 1% solution, visual observation through skin)	transport of dye, visual observation ([3]; subcutaneous, 25 gauge needle, approximate depth 7 mm)	time for dye to travel from site of injection to draining inguinal lymph node [4]	rate of travel of dye to draining inguinal lymph node ([4]; 34G 1 mm needle/catheter) [cm/s]	Compound	location of dye on dissection ([3]; ID injected)	location of dye on dissection ([3]; subcutaneous injected)
7	–	–	–	–	–	CC1(C)C(/C=C/C=C/C=C/C=C2\N(CCCCS(=O)(=O)O)c3ccc4ccccc4c3C2(C)C)=[N+](CCCCS(=O)(=O)[O-])c2ccc3ccccc3c21 [ICG, indocyanine green]	–	–
–	highly stained	up to 10 cm per second	no apparent transport of the dye	Within seconds	~20	Cc1cc(-c2ccc(/N=N/c3ccc4c(S(=O)(=O)O)cc(S(=O)(=O)O)c(N)c4c3O)c(C)c2)ccc1/N=N/c1ccc2c(S(=O)(=O)O)cc(S(=O)(=O)O)c(N)c2c1O [Evans Blue]	moved rapidly through the lymphatic vasculature to the inguinal node	remained at the site of injection and was not transported to the inguinal node
